Patent US20140005163A1 (NOVARTIS AG, priority 2010, published 2014)

Experiments:
PI3K alpha = target: T1, PI3K alpha (Homo sapiens, UniProt P42336); experiment: PI3K alpha kinase assay (Kinase-Glo luminescence); format: biochemical
T1 construct: p85(iSH2) fusion partner (see partner chain) (N); His tag (C); made in house; host or cells: baculovirus; Tn5 (Trichoplusia ni) or TiniPro insect cells
Outline: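 PI3K alpha at 10 nM with 1 μM ATP and 10 μg/mL phosphatidylinositol in 10 mM TRIS pH 7.5, 3 mM MgCl2, 50 mM NaCl, 0.05% CHAPS, 1 mM DTT, 60 min at room temperature. Remaining ATP read by Kinase-Glo luminescence. IC50 by 4-parameter fit over 8 concentrations.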

PI3K delta = target: T2, PI3K delta (Homo sapiens, UniProt O00329); experiment: PI3K delta kinase assay (Kinase-Glo luminescence); format: biochemical
T2 construct: for the full-length p110-d subunit are generated and fused by overlapping PCR; p85(iSH2) fusion partner (see partner chain) (N); His tag (C); made in house; host or cells: baculovirus; Tn5 (Trichoplusia ni) or TiniPro insect cells
Outline: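 Construct BV-1060, p85 iSH2–linker–full-length p110δ, His-tagged, at 10 nM, with 1 μM ATP and 10 μg/mL phosphatidylinositol in pH 7.5 Tris, 3 mM MgCl2, 50 mM NaCl, 0.05% CHAPS. Run 60 min at room temperature; remaining ATP read by Kinase-Glo luminescence; IC50 from 4-parameter logistic fit of 8 concentrations.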

mTOR = target: T3, mTOR (Homo sapiens, UniProt P42345); experiment: Biochemical assay for m-TOR by TR-FRET; details: 8 μM ATP, 400 nM GFP-4EBP1, 0.5 nM mTOR
T3 construct: purchased Invitrogen Corporation (Carlsbad/CA, USA) PV4753
Outline: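 Steps: ATP (8 μM final) plus GFP-4EBP1 (400 nM final) combined with mTOR (0.5 nM final), incubated at rt; buffer HEPES pH 7.5 with 10 mM MnCl2, NaCl, EGTA, DTT. Then stopped with EDTA/Tb3+-anti-p4EBP1 pT46 Ab (0.5 nM). Plates read after 15 min.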

PI3K beta = target: T4, PI3K beta (Homo sapiens, UniProt P42338); experiment: PI3K beta kinase assay (Kinase-Glo luminescence); format: biochemical
T4 construct: for the full-length p110-b subunit are generated and fused by overlapping PCR; p85(iSH2) fusion partner (see partner chain) (N); His tag (C); made in house; host or cells: baculovirus; Tn5 (Trichoplusia ni) or TiniPro insect cells
Outline: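 Enzyme: BV949 p85(iSH2)-Gly linker-p110β FL-His, 25 nM. Substrate: PI 10 μg/mL. ATP: 1 μM, added to start. Buffer: Tris pH 7.5 10 mM, MgCl2 3 mM, NaCl 50 mM, CHAPS 0.05%, DTT 1 mM. RT, 60 min. Readout: Kinase-Glo. IC50 by 4-parameter fit.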

T2 sequence (O00329 with tags, fused parts or gaps limits assumed): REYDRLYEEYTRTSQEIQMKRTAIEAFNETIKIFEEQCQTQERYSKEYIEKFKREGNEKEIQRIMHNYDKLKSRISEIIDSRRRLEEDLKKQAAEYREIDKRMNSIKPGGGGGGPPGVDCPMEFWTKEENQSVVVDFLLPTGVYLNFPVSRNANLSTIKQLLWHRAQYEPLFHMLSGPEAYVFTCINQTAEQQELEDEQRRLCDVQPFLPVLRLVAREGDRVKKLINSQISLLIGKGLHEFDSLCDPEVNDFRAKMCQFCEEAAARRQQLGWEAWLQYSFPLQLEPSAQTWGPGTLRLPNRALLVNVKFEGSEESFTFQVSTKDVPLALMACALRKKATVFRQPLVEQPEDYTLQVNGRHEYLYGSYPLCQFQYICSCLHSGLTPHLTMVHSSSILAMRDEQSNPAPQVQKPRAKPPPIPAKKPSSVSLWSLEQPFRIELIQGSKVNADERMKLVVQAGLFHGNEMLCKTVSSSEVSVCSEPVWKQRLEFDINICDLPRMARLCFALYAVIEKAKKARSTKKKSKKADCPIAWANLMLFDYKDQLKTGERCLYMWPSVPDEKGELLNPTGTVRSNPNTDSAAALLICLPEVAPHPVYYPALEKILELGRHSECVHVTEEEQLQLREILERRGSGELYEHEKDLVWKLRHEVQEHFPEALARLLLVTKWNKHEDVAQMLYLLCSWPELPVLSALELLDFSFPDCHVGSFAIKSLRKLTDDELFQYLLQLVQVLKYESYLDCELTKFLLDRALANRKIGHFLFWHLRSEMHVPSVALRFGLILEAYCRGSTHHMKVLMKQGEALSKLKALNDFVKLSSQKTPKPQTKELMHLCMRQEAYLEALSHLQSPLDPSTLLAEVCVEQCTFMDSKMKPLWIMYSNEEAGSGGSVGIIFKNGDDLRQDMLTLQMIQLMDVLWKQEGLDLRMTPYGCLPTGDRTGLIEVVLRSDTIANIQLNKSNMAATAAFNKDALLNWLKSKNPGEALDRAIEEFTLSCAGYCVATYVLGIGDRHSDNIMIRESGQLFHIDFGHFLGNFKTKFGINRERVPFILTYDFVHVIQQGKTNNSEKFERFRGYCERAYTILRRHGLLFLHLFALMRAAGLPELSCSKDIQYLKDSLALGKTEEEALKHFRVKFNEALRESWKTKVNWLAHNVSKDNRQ
T1 sequence (P42336 with tags, fused parts or gaps limits assumed): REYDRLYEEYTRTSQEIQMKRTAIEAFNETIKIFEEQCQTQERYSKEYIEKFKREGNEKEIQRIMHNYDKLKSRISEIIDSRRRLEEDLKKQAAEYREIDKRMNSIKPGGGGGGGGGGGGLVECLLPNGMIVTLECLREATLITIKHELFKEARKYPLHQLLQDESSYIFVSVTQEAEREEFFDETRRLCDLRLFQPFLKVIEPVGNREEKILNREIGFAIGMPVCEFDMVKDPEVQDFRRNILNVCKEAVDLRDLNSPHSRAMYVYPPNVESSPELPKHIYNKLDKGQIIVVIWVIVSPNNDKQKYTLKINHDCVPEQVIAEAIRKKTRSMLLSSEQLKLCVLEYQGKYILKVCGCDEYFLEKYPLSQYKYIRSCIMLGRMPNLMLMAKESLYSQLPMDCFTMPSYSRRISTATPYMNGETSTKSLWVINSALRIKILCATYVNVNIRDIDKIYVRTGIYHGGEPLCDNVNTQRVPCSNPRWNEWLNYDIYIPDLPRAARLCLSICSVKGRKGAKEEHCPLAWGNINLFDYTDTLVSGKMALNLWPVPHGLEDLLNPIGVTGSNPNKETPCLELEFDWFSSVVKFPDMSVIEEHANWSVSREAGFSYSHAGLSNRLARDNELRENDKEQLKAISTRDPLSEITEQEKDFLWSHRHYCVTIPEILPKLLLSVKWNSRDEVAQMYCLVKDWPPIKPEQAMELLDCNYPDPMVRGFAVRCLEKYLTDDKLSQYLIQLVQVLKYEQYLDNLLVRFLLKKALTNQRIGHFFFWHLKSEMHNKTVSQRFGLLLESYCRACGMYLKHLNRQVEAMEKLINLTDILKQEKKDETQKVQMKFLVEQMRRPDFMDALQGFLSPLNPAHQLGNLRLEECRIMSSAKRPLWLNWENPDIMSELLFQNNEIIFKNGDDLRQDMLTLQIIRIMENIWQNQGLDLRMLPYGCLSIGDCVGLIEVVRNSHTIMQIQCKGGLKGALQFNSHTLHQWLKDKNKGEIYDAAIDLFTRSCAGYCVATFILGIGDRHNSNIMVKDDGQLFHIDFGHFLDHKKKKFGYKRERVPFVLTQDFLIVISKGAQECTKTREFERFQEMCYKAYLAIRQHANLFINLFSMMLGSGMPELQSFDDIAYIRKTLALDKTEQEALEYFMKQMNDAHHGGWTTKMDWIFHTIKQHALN
T3 sequence (P42345 1360-2549 limits assumed): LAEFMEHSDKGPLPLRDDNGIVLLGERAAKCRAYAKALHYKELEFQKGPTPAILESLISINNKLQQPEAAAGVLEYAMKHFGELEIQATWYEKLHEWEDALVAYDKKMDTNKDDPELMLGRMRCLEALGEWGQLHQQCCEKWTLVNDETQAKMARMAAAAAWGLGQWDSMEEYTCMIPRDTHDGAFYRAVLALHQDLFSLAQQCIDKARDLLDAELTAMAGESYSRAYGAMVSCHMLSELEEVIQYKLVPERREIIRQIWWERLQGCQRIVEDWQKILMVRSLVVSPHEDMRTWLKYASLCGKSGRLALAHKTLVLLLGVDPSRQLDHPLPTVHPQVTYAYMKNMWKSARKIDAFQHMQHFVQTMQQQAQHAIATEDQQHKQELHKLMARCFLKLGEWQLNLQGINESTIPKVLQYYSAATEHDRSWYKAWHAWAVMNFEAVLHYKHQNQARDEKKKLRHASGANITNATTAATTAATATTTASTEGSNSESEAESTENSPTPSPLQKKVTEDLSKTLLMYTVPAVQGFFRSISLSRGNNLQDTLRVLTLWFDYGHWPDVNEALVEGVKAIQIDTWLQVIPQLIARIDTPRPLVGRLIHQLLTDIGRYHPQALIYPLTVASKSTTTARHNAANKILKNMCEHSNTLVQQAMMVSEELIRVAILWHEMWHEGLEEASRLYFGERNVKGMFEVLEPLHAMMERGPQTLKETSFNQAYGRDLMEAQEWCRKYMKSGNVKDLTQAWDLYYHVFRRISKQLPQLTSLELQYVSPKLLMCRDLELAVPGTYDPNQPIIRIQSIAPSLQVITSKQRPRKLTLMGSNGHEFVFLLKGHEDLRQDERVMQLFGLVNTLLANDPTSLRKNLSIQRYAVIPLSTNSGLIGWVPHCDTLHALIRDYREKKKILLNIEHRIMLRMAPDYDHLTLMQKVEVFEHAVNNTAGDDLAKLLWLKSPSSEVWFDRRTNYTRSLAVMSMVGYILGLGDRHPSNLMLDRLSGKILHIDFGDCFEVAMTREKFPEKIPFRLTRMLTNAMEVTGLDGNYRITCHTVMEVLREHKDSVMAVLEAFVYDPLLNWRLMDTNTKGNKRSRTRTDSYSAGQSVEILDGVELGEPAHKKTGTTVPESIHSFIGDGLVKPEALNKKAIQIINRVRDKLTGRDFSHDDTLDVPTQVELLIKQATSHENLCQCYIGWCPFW
T4 sequence (P42338 with tags, fused parts or gaps limits assumed): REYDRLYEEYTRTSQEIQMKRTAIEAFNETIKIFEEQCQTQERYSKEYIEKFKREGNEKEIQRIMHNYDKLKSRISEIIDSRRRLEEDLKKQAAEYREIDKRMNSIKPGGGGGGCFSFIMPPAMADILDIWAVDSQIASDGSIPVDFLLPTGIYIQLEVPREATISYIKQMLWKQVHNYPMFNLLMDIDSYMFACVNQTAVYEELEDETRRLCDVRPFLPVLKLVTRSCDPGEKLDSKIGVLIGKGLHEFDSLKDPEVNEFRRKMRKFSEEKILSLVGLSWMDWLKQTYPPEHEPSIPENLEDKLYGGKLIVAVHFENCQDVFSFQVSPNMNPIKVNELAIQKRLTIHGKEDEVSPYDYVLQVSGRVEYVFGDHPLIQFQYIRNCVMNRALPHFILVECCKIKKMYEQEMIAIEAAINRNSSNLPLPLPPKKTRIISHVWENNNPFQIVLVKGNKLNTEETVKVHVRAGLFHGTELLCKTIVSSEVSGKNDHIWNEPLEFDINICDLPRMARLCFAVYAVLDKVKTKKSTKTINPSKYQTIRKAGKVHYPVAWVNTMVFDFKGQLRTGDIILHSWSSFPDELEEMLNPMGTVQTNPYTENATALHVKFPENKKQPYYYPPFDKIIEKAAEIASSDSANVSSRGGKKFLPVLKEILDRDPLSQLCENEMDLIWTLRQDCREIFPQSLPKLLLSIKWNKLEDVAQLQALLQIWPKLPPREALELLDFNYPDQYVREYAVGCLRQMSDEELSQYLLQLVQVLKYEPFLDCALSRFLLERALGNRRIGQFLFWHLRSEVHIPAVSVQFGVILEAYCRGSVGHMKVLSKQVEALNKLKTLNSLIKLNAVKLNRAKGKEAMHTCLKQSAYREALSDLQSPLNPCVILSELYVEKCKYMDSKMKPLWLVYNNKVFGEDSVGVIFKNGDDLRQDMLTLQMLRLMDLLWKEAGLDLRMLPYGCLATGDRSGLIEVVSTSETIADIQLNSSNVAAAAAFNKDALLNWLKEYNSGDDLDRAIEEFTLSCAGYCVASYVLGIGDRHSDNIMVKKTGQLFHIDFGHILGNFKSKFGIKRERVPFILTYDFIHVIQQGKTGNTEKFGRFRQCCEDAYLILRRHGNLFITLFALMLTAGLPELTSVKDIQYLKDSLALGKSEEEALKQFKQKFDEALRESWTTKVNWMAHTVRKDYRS

| IC50 (PI3K alpha) [nM] | IC50 (PI3K delta) [nM] | IC50 (mTOR) [nM] | IC50 (PI3K beta) [nM] | Compound |
| --- | --- | --- | --- | --- |
| 74 | 4 | 24 | 29 | CCn1cc(-n2c(=O)n(C)c3cnc4ccc(-c5cncc(N)c5)cc4c32)c(C)n1 [Example 45.2, 8-(5-Amino-pyridin-3-yl)-1-(1-ethyl-3-methyl-1H-pyrazol-4-yl)-3-methyl-1,3-dihydro-imidazo[4,5-c]quinolin-2-one] |
| 18 | 94 | 6 | 140 | COC(=O)c1ccc(-c2ccc3ncc4c(c3c2)n(-c2cn(C)nc2C)c(=O)n4C)cn1 [Example 100, 5-[1-(1,3-Dimethyl-1H-pyrazol-4-yl)-3-methyl-2-oxo-2,3-dihydro-1H-imidazo[4,5-c]quinolin-8-yl]-pyridine-2-carboxylic acid methyl ester] |
| 12 | 9 | 5 | 34 | Cc1nn(C)cc1-n1c(=O)n(C)c2cnc3ccc(-c4cnc5ccn(C)c5c4)cc3c21 [Example 129, 1-(1,3-Dimethyl-1H-pyrazol-4-yl)-3-methyl-8-(1-methyl-1H-pyrrolo[3,2-b]pyridin-6-yl)-1,3-dihydro-imidazo[4,5-c]quinolin-2-one] |
| 8 | 9 | 70 | 7 | CCN1C(=O)OCc2ncc(-c3ccc4ncc5c(c4c3)n(-c3cn(C)nc3C)c(=O)n5C)cc21 [Example 237, 1-(1,3-Dimethyl-1H-pyrazol-4-yl)-8-(1-ethyl-2-oxo-1,4-dihydro-2H-pyrido[3,2-d][1,3]oxazin-7-yl)-3-methyl-1,3-dihydro-imidazo[4,5-c]quinolin-2-one] |
| 21 | 9 | 27 | 407 | CNc1ncc(-c2ccc3ncc4c(c3c2)n(-c2cn(C(C)C)nc2C)c(=O)n4C)cc1F [Example 141.3, 8-(5-Fluoro-6-methylamino-pyridin-3-yl)-1-(1-isopropyl-3-methyl-1H-pyrazol-4-yl)-3-methyl-1,3-dihydro-imidazo[4,5-c]quinolin-2-one] |
| 39 | 87 | 13 | 130 | Cc1nn(C)cc1-n1c(=O)n(C)c2cnc3ccc(-c4cncc(N5CCC5)c4)cc3c21 [Example 179, 8-(5-Azetidin-1-yl-pyridin-3-yl)-1-(1,3-dimethyl-1H-pyrazol-4-yl)-3-methyl-1,3-dihydro-imidazo[4,5-c]quinolin-2-one] |
| 460 | 175 | 58 |  | CCOc1ncc(-c2ccc3ncc4c(c3c2)n(-c2cn(C)nc2C)c(=O)n4C)cc1NC(C)=O [Example 65, N-{5-[1-(1,3-Dimethyl-1H-pyrazol-4-yl)-3-methyl-2-oxo-2,3-dihydro-1H-imidazo[4,5-c]quinolin-8-yl]-2-ethoxy-pyridin-3-yl}-acetamide] |
| 38 | 794 | 12 |  | Cc1nn(CC(=O)N2CCC2)cc1-n1c(=O)n(C)c2cnc3ccc(-c4cnc(N5CCCC5)nc4)cc3c21 [Example 247.2, 1-[1-(2-Azetidin-1-yl-2-oxo-ethyl)-3-methyl-1H-pyrazol-4-yl]-3-methyl-8-(2-pyrrolidin-1-yl-pyrimidin-5-yl)-1,3-dihydro-imidazo[4,5-c]quinolin-2-one] |
| 21 | 112 | 11 |  | CCOc1ccc(-c2ccc3ncc4c(c3c2)n(-c2cn(CC(=O)N(C)C)nc2C)c(=O)n4C)cn1 [Example 3.9, 2-{4-[8-(6-Ethoxy-pyridin-3-yl)-3-methyl-2-oxo-2,3-dihydro-imidazo[4,5-c]quinolin-1-yl]-3-methyl-pyrazol-1-yl}-N,N-dimethyl-acetamide] |
| 132 | 556 | 60 |  | Cc1nn(C)cc1-n1c(=O)n(C)c2cnc3ccc(-c4ccc(OCCCO)nc4)cc3c21 [Example 108, 1-(1,3-Dimethyl-1H-pyrazol-4-yl)-8-[6-(3-hydroxy-propoxy)-pyridin-3-yl]-3-methyl-1,3-dihydro-imidazo[4,5-c]quinolin-2-one] |
| 462 | 691 | 373 |  | CO[C@@H]1CCN(c2ccc(-c3ccc4ncc5c(c4c3)n(-c3cn(C)nc3C)c(=O)n5C)cn2)C1 [Example 213.1, 1-(1,3-Dimethyl-1H-pyrazol-4-yl)-8-[6-((R)-3-methoxy-pyrrolidin-1-yl)-pyridin-3-yl]-3-methyl-1,3-dihydro-imidazo[4,5-c]quinolin-2-one] |

Second part, the compound before the results:

| Compound | IC50 (PI3K alpha) [nM] | IC50 (PI3K delta) [nM] | IC50 (mTOR) [nM] | IC50 (PI3K beta) [nM] |
| --- | --- | --- | --- | --- |
| CCOCc1ncc(-c2ccc3ncc4c(c3c2)n(-c2cn(C)nc2C)c(=O)n4C)cc1OC [Example 196.2, 1-(1,3-Dimethyl-1H-pyrazol-4-yl)-8-(6-ethoxymethyl-5-methoxy-pyridin-3-yl)-3-methyl-1,3-dihydro-imidazo[4,5-c]quinolin-2-one] | 175 | 160 | 193 |  |
| COc1ncc(-c2ccc3ncc4c(c3c2)n(-c2cn(C)nc2Cl)c(=O)n4C)cc1N [Example 89, 8-(5-Amino-6-methoxy-pyridin-3-yl)-1-(3-chloro-1-methyl-1H-pyrazol-4-yl)-3-methyl-1,3-dihydro-imidazo[4,5-c]quinolin-2-one] | 18 | 9 | 3 | 23 |
| COc1ccc(-c2ccc3ncc4c(c3c2)n(-c2cn(C(C)C)nc2C)c(=O)n4C)cc1OC [Example 1.5, 8-(3,4-Dimethoxy-phenyl)-1-(1-isopropyl-3-methyl-1H-pyrazol-4-yl)-3-methyl-1,3-dihydro-imidazo[4,5-c]quinolin-2-one] | 10 | 7 | 61 | 101 |
| COCc1ccc(-c2ccc3ncc4c(c3c2)n(-c2cn(C)nc2Cl)c(=O)n4C)cn1 [Example 203, 1-(3-Chloro-1-methyl-1H-pyrazol-4-yl)-8-(6-methoxymethyl-pyridin-3-yl)-3-methyl-1,3-dihydro-imidazo[4,5-c]quinolin-2-one] | 5 | 8 | 15 | 104 |
| CNc1ncc(-c2ccc3ncc4c(c3c2)n(-c2c(C)nn(C)c2C)c(=O)n4C)cc1C(F)(F)F [Example 144.1, 3-Methyl-8-(6-methylamino-5-trifluoromethyl-pyridin-3-yl)-1-(1,3,5-trimethyl-1H-pyrazol-4-yl)-1,3-dihydro-imidazo[4,5-c]quinolin-2-one] | 36 | 13 | 274 | 80 |
| Cn1cc(-n2c(=O)n(C)c3cnc4ccc(-c5cncc(C(C)(C)C#N)c5)cc4c32)c(Cl)n1 [Example 220.3, 2-{5-[1-(3-Chloro-1-methyl-1H-pyrazol-4-yl)-3-methyl-2-oxo-2,3-dihydro-1H-imidazo[4,5-c]quinolin-8-yl]-pyridin-3-yl}-2-methyl-propionitrile] | 5 | 3 | 5 | 7 |
| CCN(C)c1cc(-c2ccc3ncc4c(c3c2)n(-c2cn(C)nc2C)c(=O)n4C)cnc1C [Example 165, 1-(1,3-Dimethyl-1H-pyrazol-4-yl)-8-[5-(ethyl-methyl-amino)-6-methyl-pyridin-3-yl]-3-methyl-1,3-dihydro-imidazo[4,5-c]quinolin-2-one] | 7 | 4 | < 3 | 25 |
| CCn1cc(-n2c(=O)n(C)c3cnc4ccc(-c5ccc(OC)c(OC)c5)cc4c32)c(C)n1 [Example 1.6, 8-(3,4-Dimethoxy-phenyl)-1-(1-ethyl-3-methyl-1H-pyrazol-4-yl)-3-methyl-1,3-dihydro-imidazo[4,5-c]quinolin-2-one] | 8 | 11 | 10 | 43 |
| Cc1nn(C)cc1-n1c(=O)n(C)c2cnc3ccc(-c4ccc(-n5cccn5)cc4)cc3c21 [Example 51.1, 1-(1,3-Dimethyl-1H-pyrazol-4-yl)-3-methyl-8-(4-pyrazol-1-yl-phenyl)-1,3-dihydro-imidazo[4,5-c]quinolin-2-one] | 23 | 118 | 11 |  |
| CCNc1ncc(-c2ccc3ncc4c(c3c2)n(-c2c(C)nn(C)c2C)c(=O)n4C)cc1COC [Example 206.2, 8-(6-Ethylamino-5-methoxymethyl-pyridin-3-yl)-3-methyl-1-(1,3,5-trimethyl-1H-pyrazol-4-yl)-1,3-dihydro-imidazo[4,5-c]quinolin-2-one] | 186 | 57 |  | 432 |
